For this test, the target named is T1, recombinant human tissue transglutaminase (His6-rh-TG2) (Homo sapiens, UniProt P21980).
T1 sequence (P21980 1-687): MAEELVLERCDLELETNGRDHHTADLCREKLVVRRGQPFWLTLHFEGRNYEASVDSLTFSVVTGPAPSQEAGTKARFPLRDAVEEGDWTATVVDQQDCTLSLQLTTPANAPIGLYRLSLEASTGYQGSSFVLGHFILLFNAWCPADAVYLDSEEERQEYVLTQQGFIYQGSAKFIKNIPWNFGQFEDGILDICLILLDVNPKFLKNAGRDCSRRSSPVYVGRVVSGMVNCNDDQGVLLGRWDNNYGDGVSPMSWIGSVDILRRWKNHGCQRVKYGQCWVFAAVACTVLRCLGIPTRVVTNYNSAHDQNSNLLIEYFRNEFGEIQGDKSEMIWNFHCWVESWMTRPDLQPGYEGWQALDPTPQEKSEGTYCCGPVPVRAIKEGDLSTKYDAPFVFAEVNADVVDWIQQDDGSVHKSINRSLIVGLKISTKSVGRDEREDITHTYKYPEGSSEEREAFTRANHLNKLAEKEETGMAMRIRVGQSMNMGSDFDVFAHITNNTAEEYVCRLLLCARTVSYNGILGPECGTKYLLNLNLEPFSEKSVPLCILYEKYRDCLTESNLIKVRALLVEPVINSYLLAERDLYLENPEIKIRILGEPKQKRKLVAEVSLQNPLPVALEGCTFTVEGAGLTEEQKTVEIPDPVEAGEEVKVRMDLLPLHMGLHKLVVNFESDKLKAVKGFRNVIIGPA
The test is described as follows: Inactivation of human tissue transglutaminase, fluorescence assay, IC50. The class given is biochemical. Particulars: 5 min preincubation, 37° C. Here is the method: 250 μg of lyophilized his-tagged recombinant human tissue transglutaminase (His6-rh-TG2) are reconstituted by the addition of 150 μl of water (resulting buffer 50 mM of NaH2PO4, 150 mM of NaCl, pH=8).
A 10 mM inhibitor stock solution in DMSO is prepared and diluted with buffer (50 mM of Tris-HCl, 10 mM of CaCl2, 5 mM of DTT, pH=7.5, respectively) to the 20-fold of the concentration desired for the inhibition mixture (at least 1/50 dilution resulting in 2% DMSO concentration).
900 μl of an assay solution composed of 55.56 mM of Tris, 11.11 mM of CaCl2, 0.11% PEG8000, 5.56 mM of DTT, 5.56 mM of glycine methyl ester and 50 μM of Abz-APE(CAD-DNP)QEA-OH, (patent number:), pH=7.5 are placed in a cuvette and brought to a temperature of 37° C. in the measuring cell of a spectrophotometer. 50 μl of the respective inhibitor solution are added to said solution (resulting in a concentration of less than 0.2% of DMSO in the mixture).
7 μl of the transglutaminase solution reconstituted above are diluted with 51 μl of buffer (50 mM of Tris, 100 mM of NaCl, 5 mM of DTT, pH=7.5). 50 μl of said enzyme solution (10 μg His6-rhTG2) are added to the assay solution containing the respective inhibitor concentration. The mixture is incubated for 5 min at 37° C. before the measurement is performed. λexc=313 nm and λem=418 nm, 15 min)
The resulting enzyme activity was measured by analyzing the slope of the straight line obtained by the increase in fluorescence.
DMSO is used instead of inhibitor stock solution in order to determine the non-inhibited enzyme activity. IC50 values are determined by plotting the resulting enzyme activity against the logarithm of the inhibitor concentration. IC50 is defined as the concentration of an inhibitor at which enzyme activity is reduced to 50% after 5 min of preincubation.

*1 amine or outer side, *2 acyl side, *3 side chain or, on linkers, in order; H or OH if unused. Where a SMILES comes first, the peptide text is derived from it. [ ]: non-standard residue; d: D form. The star is where a group is joined. Nle(5E-ene,6-CO2Et) = CCOC(=O)/C=C/CC[C@H](N)C(=O)O; X7 = O=C(/C=C/CC[C@H](N[*:1])C(=O)[*:2])OCc1ccccc1; Tic = O=C(O)[C@@H]1Cc2ccccc2CN1; Cbz = O=C(OCc1ccccc1)*

Consider `CCOC(=O)/C=C/CC[C@H](NC(=O)OCc1ccccc1)C(=O)N[C@@H](CCC(N)=O)C(=O)N1CCC[C@H]1C(=O)N[C@@H](Cc1ccc(O)cc1)C(=O)OC` [Compound 19, N^α-benzyloxycarbonyl-{[(E)-(L)-6-amino-hept-2-ene-dicarboxylic acid]-1-ethanoyl}-L-glutaminyl-L-proline-L-tyrosine methyl ester] (Cbz-[Nle(5E-ene,6-CO2Et)]QPY-OMe), for which the half-inhibitory concentration (IC50) (in general, the concentration that inhibits the measured activity by half) (Table 1) stood at 2.4 µM.
For `CCOC(=O)C=CC(=O)CC[C@H](NC(C)=O)C(=O)N[C@@H](CCC(N)=O)C(=O)N1CCC[C@H]1C(=O)N[C@@H](CC(C)C)C(=O)OC` [Compound 22, N^α-acetyl-{[L-7-Amino-4-oxo-oct-2-ene-dicarboxylic acid]-1-ethanoyl}-L-glutaminyl-L-prolinyl-L-leucine methyl ester], the IC50 (Table 1) is 0.07 µM.
Take `COC(=O)/C=C/CC[C@H](NC(=O)OCc1ccccc1)C(=O)N[C@@H](Cc1ccccc1)C(=O)N1CCC[C@H]1C(=O)N[C@@H](CC(C)C)C(=O)OC` [Compound 13, N^α-benzyloxycarbonyl-{[(E)-(L)-6-amino-hept-2-enedicarboxylic acid]-1-methanoyl}-L-phenylalaninyl-L-prolinyl-L-leucine methyl ester]: the IC50 (Table 1) is 1.5 µM.
Regarding “N^α-benzyloxycarbonyl)-[(Z)-(L)-2-amino-7-oxo-oct-5-ene-dicarboxylic acid]-L-glutaminyl-L-prolinyl-L-leucine methyl ester [Compound 3.2.10]”, the IC50 (Table 2) turned out to be 56 µM.
Still for that read-out and setting: then `COC(=O)C(CC(C)C)NC(=O)C1CCCN1C(=O)C(CCC(N)=O)NC(=O)C(CCC=CC#N)NC(=O)OCc1ccccc1` [Compound 3.2.11, N^α-benzyloxycarbonyl)-[(Z)-(L)-2-amino-6-cyano-hex-5-ene-dicarboxylic acid]-L-glutaminyl-L-prolinyl-L-leucine methyl ester], with 43 µM.
Consider “N^α-(2-fluorobenzoyl)-{[L-7-amino-4-oxo-oct-2-ene-dicarboxylic acid]-1-methanoyl}-L-valinyl-L-4-fluoroprolinyl-leucine isopropyl ester [Compound 24]”, for which the IC50 (Table 1) turned out to be 8 µM.
For the compound “N^α-(5-methylisoxazol-3-carbonyl)-{[L-7-amino-4-oxo-oct-2-ene-dicarboxylic acid]-1-isopropanoyl}-L-valinyl-L-prolinyl-leucine methyl ester [Compound 23]”, under “Table 1”, the IC50 came out at 0.056 µM.
Turning to `COC(=O)/C=C/CC[C@H](NC(C)=O)C(=O)N[C@@H](CCC(N)=O)C(=O)N[C@@H](CCC(=O)O)C(=O)OC` [Compound 11, N^α-acetyl-{[(E)-(L)-6-amino-hept-2-ene-dicarboxylic acid]-1-methanoyl}-L-glutaminyl-L-glutamyl methyl ester], the IC50 (Table 1) stood at 2.1 µM.
Still for that read-out and setting: under `COC(=O)[C@H](CC(C)C)NC(=O)[C@@H]1Cc2ccccc2CN1C(=O)[C@H](CCC(N)=O)NC(=O)[C@H](CC/C=C/C(=O)OCc1ccccc1)NC(=O)[C@@H]1CCCN1C(=O)[C@H](CCC(N)=O)NC(=O)[C@@H]1CCCN1C(=O)OCc1ccccc1` [Compound 41] (Cbz-PQP[X7]Q[Tic]L-OMe) stands 0.215 µM.
Consider “N^α-acetyl-{[(E)-(L)-6-Amino-hept-2-ene dicarboxylic acid]-1-methanoyl}-L-phenylalaninyl-L-prolinyl-L-leucine methyl ester [Compound 12]”, for which the IC50 (Table 1) turned out to be 1.8 µM.
Take “[(E)-(L)-6-(2-oxo-pyrrolidon-1-yl)-hept-2-ene-dicarboxylic acid-1-ethanoyl]-L-cyclohexylglycinyl-L-homoprolinyl-L-leucine methyl ester [Compound 17]”: the IC50 (Table 1) was found to be 35 µM.
Regarding “[(E)-(L)-6-(2-Oxo-pyrrolidon-1-yl)hept-2-ene-dicarboxylic acid 1-ethanoyl]-L-valinyl-L-homoprolinyl-L-leucine methyl ester [Compound 16]”, the IC50 (Table 1) turned out to be 22 µM.
`CCOC(=O)C=CC(=O)CC[C@H](NC(=O)OCc1ccccc1)C(=O)N[C@H](C(=O)N1CCC[C@H]1C(=O)N[C@@H](CC(C)C)C(=O)OC)C(C)C` [Compound 9, N^α-benzyloxycarbonyl-{[L-7-amino-4-oxo-oct-2-ene-dicarboxylic acid]-1-ethanoyl}-L-valinyl-L-prolinyl-leucine methyl ester]: the IC50 (Table 1) was found to be 18 µM.
Turning to `COC(=O)/C=C/CC[C@H](NC(C)=O)C(=O)N[C@@H](Cc1ccc(F)cc1)C(=O)N1CCC[C@H]1C(=O)N[C@@H](CC(C)C)C(=O)OC` [Compound 14, N^α-acetyl-{[(E)-(L)-6-amino-hept-2-ene-dicarboxylic acid]-1-methanoyl}-L-(p-fluoro)-phenylalaninyl-L-prolinyl-L-leucine methyl ester], for the setting “Table 1”, the IC50 was 1.1 µM.
The same measure, in the same setting: then “N^α-benzyloxycarbonyl-{[(E)-(L)-6-amino-hept-2-ene-dicarboxylic acid]-1-ethanoyl}-L-leucinyl-L-prolinyl-L-glutamine methyl ester [Compound 21]”, with 3.2 µM.
Turning to `CC(=O)NCCC(=O)N1CCCC(C(=O)C(CC/C=C/C(=O)OC(C)C)N2Cc3nc[nH]c3CC2C(=O)NC(CNC(N)=O)C(=O)NC(CC(C)C)C(=O)N2CCCC2C(=O)NC(Cc2ccc(Oc3ccc(O)cc3)cc2)C(=O)O)C1` (centres unmarked) [Compound 42], where the note is “Table 1”, the IC50 was 4 µM.
On to `COC(=O)/C=C/CC[C@H](NC(=O)OCc1ccccc1)C(=O)N[C@@H](Cc1ccc(F)cc1)C(=O)N1CCC[C@H]1C(=O)N[C@@H](CC(C)C)C(=O)OC` [Compound 15, N^α-benzyloxycarbonyl-{[(E)-(L)-6-amino-hept-2-ene-dicarboxylic acid]-1-methanoyl}-L-(p-fluoro)-phenylalaninyl-L-prolinyl-L-leucine methyl ester], for which, under “Table 1”, the half-inhibitory concentration (IC50) turned out to be 0.88 µM.
On the same count and under the same terms, under “[(E)-(L)-6-(2-oxo-pyrrolidon-1-yl)-hept-2-ene-dicarboxylic acid-1-ethanoyl]-L-cyclohexylglycinyl-L-prolinyl-L-leucine methyl ester [Compound 18]” stands 28 µM; under `CCOC(=O)/C=C/CC[C@H](NC(=O)OCc1ccccc1)C(=O)N[C@@H](CCC(N)=O)C(=O)N1CCC[C@H]1C(=O)N[C@@H](CC(C)C)C(=O)OC` [Compound 20, N^α-benzyloxycarbonyl-{[(E)-(L)-6-amino-hept-2-ene-dicarboxylic acid]-1-ethanoyl}-L-glutaminyl-L-prolinyl-L-leucine methyl ester] (Cbz-[Nle(5E-ene,6-CO2Et)]QPL-OMe), 2 µM.
In the case of `COC(=O)/C=C/CC[C@H](NC(C)=O)C(=O)N[C@@H](CCC(N)=O)C(=O)N[C@@H](CCC(=O)O)C(=O)N[C@@H](C)C(=O)OC` [Compound 10, N^α-Acetyl-{[(E)-(L)-6-amino-hept-2-ene-dicarboxylic acid]-1-methanoyl}-L-glutaminyl-L-glutamyl-L-alanine methyl ester], for the setting “Table 1”, the IC50 came out at 0.33 µM.
